# Experimental data published in US20120115896A1, “ISOGENIC HUMAN CELL LINES COMPRISING MUTATED CANCER ALLELES AND PROCESS USING THE CELL LINES” (priority 2008, published 2012).
# Like-named read-outs stand apart in the source and are kept apart here.
# Experiments:
# [1] = system: hTERT-HME1 DKI cells carrying PIK3CA (H1047R) and EGFR (delE746-A750); assay: Drug assay: cell viability by ATP content (96 h), DKI versus parental cells; ΔKI pharmarray analysis
# [2] = system: hTERT-HME1 cells carrying PIK3CA (E545K and H1047R) KI; assay: Drug assay: cell viability by ATP content (96 h) and Hoechst/propidium iodide staining, KI versus parental cells; ΔKI pharmarray analysis
# [3] = system: hTERT-HME1 cells carrying EGFR (delE746-A750) KI; assay: Drug assay: cell viability by ATP content (CellTiter-Glo, 96 h), KI versus parental cells; ΔKI pharmarray analysis
# [4] = system: hTERT-HME1 cells carrying KRAS (G13D) KI; assay: Drug assay: cell viability by ATP content (96 h), KI versus parental cells; ΔKI pharmarray analysis
# [5] = system: hTERT-HME1 cells carrying BRAF (V600E) KI; assay: as above
smiles,measurement,setting,value
c1cc(-c2cnn3cc(-c4ccc(OCCN5CCCCC5)cc4)cnc23)ccn1 [Compound C],ΔKI PIK3CA + EGFR,[1],0
same,ΔKI PIK3CA + EGFR,[1]; Log(M) −4.70,0
same,ΔKI PIK3CA,[2],0
same,ΔKI PIK3CA,[2]; Log(M) −4.70,0
same,ΔKI EGFR,[3],0
same,ΔKI EGFR,[3]; Log(M) −4.70,0
same,ΔKI KRAS,[4],0
same,ΔKI KRAS,[4]; Log(M) −4.70,0
same,ΔKI BRAF,[5],0
same,ΔKI BRAF,[5]; Log(M) −4.70,0
COc1ccc(-c2cc(=O)c3c(O)c(OC)c(O)cc3o2)cc1OC [Eupatiline],ΔKI PIK3CA + EGFR,[1],0
same,ΔKI PIK3CA + EGFR,[1]; Log(M) −3.97,0
same,ΔKI PIK3CA,[2],−1.66
same,ΔKI PIK3CA,[2]; Log(M) −3.97,0
same,ΔKI EGFR,[3],0
same,ΔKI EGFR,[3]; Log(M) −3.97,0
same,ΔKI KRAS,[4],0
same,ΔKI KRAS,[4]; Log(M) −3.97,0
same,ΔKI BRAF,[5],−0.1
same,ΔKI BRAF,[5]; Log(M) −3.97,2.9
CC[C@H](C)C(=O)O[C@H]1C[C@H](O)C=C2C=C[C@H](C)[C@H](CC[C@@H](O)C[C@@H](O)CC(=O)[O-])[C@H]21.[Na+] [Pravastatin Na],ΔKI PIK3CA + EGFR,[1]; Log(M) −4.32,0
same,ΔKI PIK3CA + EGFR,[1]; Log(M) −4.92,0
same,ΔKI PIK3CA + EGFR,[1]; Log(M) −5.52,0
same,ΔKI PIK3CA,[2]; Log(M) −4.32,0
same,ΔKI PIK3CA,[2]; Log(M) −5.52,0
same,ΔKI EGFR,[3]; Log(M) −4.32,0
same,ΔKI EGFR,[3]; Log(M) −4.92,0
same,ΔKI EGFR,[3]; Log(M) −5.52,0
same,ΔKI KRAS,[4]; Log(M) −4.32,0
same,ΔKI KRAS,[4]; Log(M) −4.92,0
same,ΔKI KRAS,[4]; Log(M) −5.52,0
same,ΔKI BRAF,[5]; Log(M) −4.32,0
same,ΔKI BRAF,[5]; Log(M) −4.92,0
same,ΔKI BRAF,[5]; Log(M) −5.52,0
"O=C([O-])C[C@H](O)C[C@H](O)/C=C/c1c(C2CC2)nc2ccccc2c1-c1ccc(F)cc1.O=C([O-])C[C@H](O)C[C@H](O)/C=C/c1c(C2CC2)nc2ccccc2c1-c1ccc(F)cc1.[Ca+2] [itavastatin, Itavastatin Ca]",ΔKI PIK3CA + EGFR,[1],0
same,ΔKI PIK3CA,[2],0
same,ΔKI EGFR,[3],0
same,ΔKI KRAS,[4],0
same,ΔKI BRAF,[5],0
same,pharmarray: differential response of BRAF mutated cells versus WT,"[5]; hTERT-HME1, FIG. 5H",more resistant
same,ΔKI BRAF,[5]; listed as OGC-072,−7.2
CCCCC/C=C\C/C=C\C/C=C\C/C=C\CCC(C)C(=O)NCCF (stereo not drawn) [Met-F-AEA],ΔKI PIK3CA + EGFR,[1],0
same,ΔKI PIK3CA,[2],0
same,ΔKI EGFR,[3],0
same,ΔKI KRAS,[4],0
same,ΔKI BRAF,[5]; listed as OGC-079,0.3
CCCCC/C=C\C/C=C\C/C=C\C/C=C\CCCC(=O)Nc1ccc(O)cc1 [AM404],ΔKI PIK3CA + EGFR,[1],0
same,ΔKI PIK3CA + EGFR,[1]; Log(M) −4.70,0
same,ΔKI PIK3CA,[2],0
same,ΔKI PIK3CA,[2]; Log(M) −4.70,0
same,ΔKI EGFR,[3],0
same,ΔKI EGFR,[3]; Log(M) −4.70,0
same,ΔKI KRAS,[4],0
same,ΔKI KRAS,[4]; Log(M) −4.70,0
same,ΔKI BRAF,[5],−0.12
same,ΔKI BRAF,[5]; Log(M) −4.70,−1.68
"CCCCCCCCCCCCCCCCCCOCC(COC(=O)OC1C(O)C(O)C(O)C(CO)C1O)OC [OGC-023, 1L6-Hydroxymethyl-chiro-inositol-2-(R)-2-O-methyl-3-O-octadecyl-sn-glycerocarbonate]",ΔKI PIK3CA + EGFR,[1]; Log(M) −4.14,0
same,ΔKI PIK3CA + EGFR,[1]; Log(M) −4.62,3.32
same,ΔKI PIK3CA + EGFR,[1]; Log(M) −5.10,2.4
same,ΔKI PIK3CA,[2]; Log(M) −4.14,0
same,ΔKI PIK3CA,[2]; Log(M) −4.62,0
same,ΔKI PIK3CA,[2]; Log(M) −5.10,0
same,ΔKI EGFR,[3]; Log(M) −4.14,0
same,ΔKI EGFR,[3]; Log(M) −4.62,0
same,ΔKI EGFR,[3]; Log(M) −5.10,0
same,ΔKI KRAS,[4]; Log(M) −4.14,0
same,ΔKI KRAS,[4]; Log(M) −4.62,0
same,ΔKI KRAS,[4]; Log(M) −5.10,0
same,ΔKI BRAF,[5]; Log(M) −4.14,0
same,ΔKI BRAF,[5]; Log(M) −4.62,0
same,ΔKI BRAF,[5]; Log(M) −5.10,0
CCCCCc1cc(O)c2c(c1)OC(C)(C)[C@@H]1CCC(C)=C[C@@H]21 [THC],ΔKI PIK3CA + EGFR,[1],0
same,ΔKI PIK3CA,[2],0
same,ΔKI EGFR,[3],0
same,ΔKI KRAS,[4],0
same,ΔKI BRAF,[5],0.3
same,ΔKI BRAF,[5]; Log(M) −4.60,0.46
same,ΔKI BRAF,[5]; listed as OGC-089,0.88
COc1cccc(-c2cc(=O)c3ccccc3o2)c1N [PD 98059],ΔKI PIK3CA + EGFR,[1]; Log(M) −3.57,0
same,ΔKI PIK3CA + EGFR,[1]; Log(M) −4.05,0
same,ΔKI PIK3CA + EGFR,[1]; Log(M) −4.52,0
same,ΔKI PIK3CA,[2]; Log(M) −3.57,0
same,ΔKI PIK3CA,[2]; Log(M) −4.05,0
same,ΔKI PIK3CA,[2]; Log(M) −4.52,0
same,ΔKI EGFR,[3]; Log(M) −3.57,0
same,ΔKI EGFR,[3]; Log(M) −4.05,3.5
same,ΔKI EGFR,[3]; Log(M) −4.52,0
same,ΔKI KRAS,[4]; Log(M) −3.57,0
same,ΔKI KRAS,[4]; Log(M) −4.05,0
same,ΔKI KRAS,[4]; Log(M) −4.52,0
same,ΔKI BRAF,[5]; Log(M) −3.57,0
same,ΔKI BRAF,[5]; Log(M) −4.05,0
same,ΔKI BRAF,[5]; Log(M) −4.52,4
